Source: the OligoGym collection
After the bases stand the sugars from the 5' end (letter, count) and the backbone: PS all phosphorothioate, else s phosphorothioate and o phosphodiester by linkage. Methylation of C is not given here. e = 2'-O-(2-methoxyethyl) (MOE); k = constrained ethyl (cEt); d = 2'-deoxy (DNA); m = 2'-O-methyl

Target: HSD17B13
Settings: ASO, HepaRG

Sequence	target mRNA inhibition (1 µM) [%]	further results
GCATAAGAGCCAAACT (sugars k3 d10 k3, PS)	67	–
GCATCAAGACATTCTA (sugars k3 d10 k3, PS)	72	–
GCATCTTAAGATACCC (sugars k3 d1 m1 d8 k3, PS)	65	–
GCATCTTAAGATACCC (sugars k3 d9 k3 e1, PS)	84	target mRNA inhibition (0.02 µM): 28%; target mRNA inhibition (0.078 µM): 34%; target mRNA inhibition (0.313 µM): 58%; target mRNA inhibition (1.25 µM): 81%; target mRNA inhibition (5 µM): 83%
GCATGCGCAGTGACGC (sugars k3 d10 k3, PS)	36	–
GCATTAATGCCACCCT (sugars kkdddddddddkekek, PS)	24	–
GCATTAGATGGTAAGG (sugars k3 d10 k3, PS)	64	–
GCCACAGATTTTCTCC (sugars k3 d10 k3, PS)	49	–
GCCAGATTGCACAAAC (sugars k3 d10 k3, PS)	60	–
GCCCATCCCCTAAGTT (sugars k3 d10 k3, PS)	33	–
GCCCTTAAGTCATTTT (sugars k3 d10 k3, PS)	25	–
GCCGCACACTGAAGCC (sugars k3 d10 k3, PS)	25	–
GCCTAGTTACAAACCA (sugars k3 d10 k3, PS)	56	–
GCCTAGTTGCAATGAG (sugars k3 d10 k3, PS)	61	–
GCCTGCTGAAACTTGA (sugars k3 d10 k3, PS)	18	–
GCGCTTATTAATATCC (sugars k3 d10 k3, PS)	3	–
GCTAAGTAGTAATTCT (sugars k3 d10 k3, PS)	57	–
GCTACTTGAACAGTCT (sugars k3 d1 m1 d8 k3, PS)	82	–
GCTACTTGAACAGTCT (sugars k3 d9 k3 e1, PS)	60	–
GCTATAGTAATTGCTA (sugars k3 d10 k3, PS)	33	–

Sequence	target mRNA inhibition (1 µM) [%]	further results
GCTCCATAATAATAGC (sugars k3 d9 k3 e1, PS)	8	–
GCTCCATAATAATAGC (sugars k3 d10 k3, PS)	21	–
GCTGAGAGTTATCTGG (sugars k3 d10 k3, PS)	65	–
GCTGCATTAATGCCAC (sugars k3 d10 k3, PS)	46	–
GCTGCCTGCTGAAACT (sugars k3 d10 k3, PS)	38	–
GCTGCTAGTGCCAAAC (sugars kkdddddddddkekek, PS)	62	–
GCTGGATATACTGTCC (sugars k3 d10 k3, PS)	36	–
GCTGGTAAAGGTAAGG (sugars k3 d10 k3, PS)	65	–
GCTTAATTTTCGGGTT (sugars k3 d10 k3, PS)	36	–
GCTTACGACAGGTCAT (sugars k3 d10 k3, PS)	73	–
GCTTAGTTCATTGTGA (sugars k3 d10 k3, PS)	45	–
GCTTTAATTTTTGAGC (sugars k3 d10 k3, PS)	26	–
GCTTTGCAGCATTGAT (sugars k3 d10 k3, PS)	61	–
GCTTTTGTCCACCTTT (sugars k3 d9 k3 e1, PS)	81	target mRNA inhibition (0.02 µM): 0%; target mRNA inhibition (0.078 µM): 17%; target mRNA inhibition (0.313 µM): 37%; target mRNA inhibition (1.25 µM): 69%; target mRNA inhibition (5 µM): 83%
GCTTTTGTGATCCAAA (sugars k3 d10 k3, PS)	43	–
GGAAATTGTTGCTGTT (sugars k3 d10 k3, PS)	46	–
GGAACAATATGGGATG (sugars k3 d10 k3, PS)	36	–
GGAATGCTACTTGAAC (sugars k3 d9 k3 e1, PS)	68	–
GGAAUGCTACTTGAAC (sugars k3 d1 m1 d8 k3, PS)	62	–
